Paper PMC6199744, “Development of Chemical Proteomics for the Folateome and Analysis of the Kinetoplastid Folateome” (ACS Infectious Diseases, 2018)
Like-named read-outs stand apart in the source and are kept apart here.

Assays:
Type in all cases: binding
[1] = target: T1, HeLa cell extract proteins (Homo sapiens, UniProt P30101)
T1 construct: endogenous in cells; host or cells: HeLa cell extract
T1 sequence (P30101 25-505): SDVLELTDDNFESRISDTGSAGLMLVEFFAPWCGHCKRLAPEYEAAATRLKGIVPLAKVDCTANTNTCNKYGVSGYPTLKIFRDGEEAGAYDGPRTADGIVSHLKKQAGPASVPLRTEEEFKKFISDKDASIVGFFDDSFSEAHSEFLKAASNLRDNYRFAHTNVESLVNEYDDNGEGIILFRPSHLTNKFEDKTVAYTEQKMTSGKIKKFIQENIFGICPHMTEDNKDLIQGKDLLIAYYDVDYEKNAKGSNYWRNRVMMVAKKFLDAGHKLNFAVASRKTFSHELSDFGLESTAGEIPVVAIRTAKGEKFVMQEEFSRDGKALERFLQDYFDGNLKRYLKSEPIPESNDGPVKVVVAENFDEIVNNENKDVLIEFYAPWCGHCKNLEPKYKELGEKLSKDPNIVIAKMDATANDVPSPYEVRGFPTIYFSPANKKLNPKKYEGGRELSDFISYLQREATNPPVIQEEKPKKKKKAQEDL

[2] = target: T2, HeLa cell extract proteins (Homo sapiens, UniProt Q63HN8)
T2 construct: endogenous in cells; host or cells: HeLa cell extract

[3] = target: T3, HeLa cell extract proteins (Homo sapiens, UniProt P55735)
T3 construct: endogenous in cells; host or cells: HeLa cell extract
T3 sequence (P55735 1-322): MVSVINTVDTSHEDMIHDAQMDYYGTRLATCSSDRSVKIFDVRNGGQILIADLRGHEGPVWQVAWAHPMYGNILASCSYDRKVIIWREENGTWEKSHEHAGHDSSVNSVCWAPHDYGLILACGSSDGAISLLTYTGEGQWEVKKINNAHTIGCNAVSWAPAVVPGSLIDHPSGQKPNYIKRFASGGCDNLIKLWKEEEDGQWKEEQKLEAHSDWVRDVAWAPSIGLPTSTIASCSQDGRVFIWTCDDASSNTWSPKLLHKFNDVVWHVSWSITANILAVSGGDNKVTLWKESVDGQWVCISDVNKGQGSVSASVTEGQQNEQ

[4] = target: T4, HeLa cell extract proteins (Homo sapiens, UniProt P11021)
T4 construct: endogenous in cells; host or cells: HeLa cell extract

[5] = target: T5, HeLa cell extract proteins (Homo sapiens, UniProt P60842)
T5 construct: endogenous in cells; host or cells: HeLa cell extract

[6] = target: T6, HeLa cell extract proteins (Homo sapiens, UniProt Q02218)
T6 construct: endogenous in cells; host or cells: HeLa cell extract
T6 sequence (Q02218 41-1023): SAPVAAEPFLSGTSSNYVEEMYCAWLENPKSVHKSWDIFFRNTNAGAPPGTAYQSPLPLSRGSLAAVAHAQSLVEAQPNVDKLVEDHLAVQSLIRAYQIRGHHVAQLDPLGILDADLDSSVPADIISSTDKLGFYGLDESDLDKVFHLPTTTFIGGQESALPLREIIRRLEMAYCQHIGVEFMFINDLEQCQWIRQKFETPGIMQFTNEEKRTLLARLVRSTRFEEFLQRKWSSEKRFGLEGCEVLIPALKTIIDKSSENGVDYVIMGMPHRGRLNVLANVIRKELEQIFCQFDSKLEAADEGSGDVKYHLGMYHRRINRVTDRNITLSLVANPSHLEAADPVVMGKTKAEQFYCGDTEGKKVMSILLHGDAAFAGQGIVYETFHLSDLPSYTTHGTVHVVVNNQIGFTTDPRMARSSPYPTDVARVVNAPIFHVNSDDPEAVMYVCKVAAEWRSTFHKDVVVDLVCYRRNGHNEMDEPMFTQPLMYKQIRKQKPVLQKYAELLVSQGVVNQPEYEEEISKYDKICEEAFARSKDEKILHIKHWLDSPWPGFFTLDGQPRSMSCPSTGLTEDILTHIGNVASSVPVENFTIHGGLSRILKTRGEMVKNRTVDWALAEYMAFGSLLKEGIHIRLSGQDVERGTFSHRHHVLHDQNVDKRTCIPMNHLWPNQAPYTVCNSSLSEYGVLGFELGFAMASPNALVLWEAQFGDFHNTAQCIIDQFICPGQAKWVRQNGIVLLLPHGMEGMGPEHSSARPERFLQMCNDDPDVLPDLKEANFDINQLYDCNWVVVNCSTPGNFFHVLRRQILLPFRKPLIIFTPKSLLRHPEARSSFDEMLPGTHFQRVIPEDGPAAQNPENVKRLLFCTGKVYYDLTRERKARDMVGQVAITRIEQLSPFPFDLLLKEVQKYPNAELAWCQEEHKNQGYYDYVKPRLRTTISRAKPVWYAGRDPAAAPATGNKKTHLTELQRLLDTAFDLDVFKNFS

[7] = target: T7, HeLa cell extract proteins (Homo sapiens, UniProt P28066)
T7 construct: endogenous in cells; host or cells: HeLa cell extract
T7 sequence (P28066 1-241): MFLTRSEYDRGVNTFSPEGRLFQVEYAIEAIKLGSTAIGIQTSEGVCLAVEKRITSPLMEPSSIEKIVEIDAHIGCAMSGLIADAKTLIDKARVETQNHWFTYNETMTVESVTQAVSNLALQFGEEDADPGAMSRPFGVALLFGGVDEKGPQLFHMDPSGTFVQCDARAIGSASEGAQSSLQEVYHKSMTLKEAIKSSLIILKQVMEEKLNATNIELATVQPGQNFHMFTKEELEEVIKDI

[8] = target: T8, HeLa cell extract proteins (Homo sapiens, UniProt P08559)
T8 construct: endogenous in cells; host or cells: HeLa cell extract
T8 sequence (P08559 30-390): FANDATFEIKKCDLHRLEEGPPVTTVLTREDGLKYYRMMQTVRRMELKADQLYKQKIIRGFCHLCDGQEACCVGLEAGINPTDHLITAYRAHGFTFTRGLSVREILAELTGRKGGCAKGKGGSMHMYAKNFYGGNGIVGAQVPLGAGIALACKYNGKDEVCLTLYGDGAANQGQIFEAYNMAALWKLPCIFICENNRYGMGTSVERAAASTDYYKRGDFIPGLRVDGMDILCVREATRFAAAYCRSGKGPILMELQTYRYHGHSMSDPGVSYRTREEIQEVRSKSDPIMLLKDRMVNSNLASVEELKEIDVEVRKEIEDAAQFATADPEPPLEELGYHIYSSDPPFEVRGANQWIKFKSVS

[9] = system: NGG1 INTERACTING FACTOR 3-LIKE (Tb427tmp.02.5000); settings: for fold change: vehicle control = 1
[10] = target: T. brucei lysate proteins (Trypanosoma brucei brucei, UniProt P04789)
[11] = protein TB427TMP.02.5000 NGG1 INTERACTING FACTOR 3-LIKE
[12] = protein TB427TMP.02.3210 TRIOS[…]
[13] = protein TB427TMP.02.3210 TRIOS[…], vehicle control = 1
[14] = protein TB427TMP.02.5000 NGG1 I[…] 3-LIKE

T2 sequence (Q63HN8 whole entry): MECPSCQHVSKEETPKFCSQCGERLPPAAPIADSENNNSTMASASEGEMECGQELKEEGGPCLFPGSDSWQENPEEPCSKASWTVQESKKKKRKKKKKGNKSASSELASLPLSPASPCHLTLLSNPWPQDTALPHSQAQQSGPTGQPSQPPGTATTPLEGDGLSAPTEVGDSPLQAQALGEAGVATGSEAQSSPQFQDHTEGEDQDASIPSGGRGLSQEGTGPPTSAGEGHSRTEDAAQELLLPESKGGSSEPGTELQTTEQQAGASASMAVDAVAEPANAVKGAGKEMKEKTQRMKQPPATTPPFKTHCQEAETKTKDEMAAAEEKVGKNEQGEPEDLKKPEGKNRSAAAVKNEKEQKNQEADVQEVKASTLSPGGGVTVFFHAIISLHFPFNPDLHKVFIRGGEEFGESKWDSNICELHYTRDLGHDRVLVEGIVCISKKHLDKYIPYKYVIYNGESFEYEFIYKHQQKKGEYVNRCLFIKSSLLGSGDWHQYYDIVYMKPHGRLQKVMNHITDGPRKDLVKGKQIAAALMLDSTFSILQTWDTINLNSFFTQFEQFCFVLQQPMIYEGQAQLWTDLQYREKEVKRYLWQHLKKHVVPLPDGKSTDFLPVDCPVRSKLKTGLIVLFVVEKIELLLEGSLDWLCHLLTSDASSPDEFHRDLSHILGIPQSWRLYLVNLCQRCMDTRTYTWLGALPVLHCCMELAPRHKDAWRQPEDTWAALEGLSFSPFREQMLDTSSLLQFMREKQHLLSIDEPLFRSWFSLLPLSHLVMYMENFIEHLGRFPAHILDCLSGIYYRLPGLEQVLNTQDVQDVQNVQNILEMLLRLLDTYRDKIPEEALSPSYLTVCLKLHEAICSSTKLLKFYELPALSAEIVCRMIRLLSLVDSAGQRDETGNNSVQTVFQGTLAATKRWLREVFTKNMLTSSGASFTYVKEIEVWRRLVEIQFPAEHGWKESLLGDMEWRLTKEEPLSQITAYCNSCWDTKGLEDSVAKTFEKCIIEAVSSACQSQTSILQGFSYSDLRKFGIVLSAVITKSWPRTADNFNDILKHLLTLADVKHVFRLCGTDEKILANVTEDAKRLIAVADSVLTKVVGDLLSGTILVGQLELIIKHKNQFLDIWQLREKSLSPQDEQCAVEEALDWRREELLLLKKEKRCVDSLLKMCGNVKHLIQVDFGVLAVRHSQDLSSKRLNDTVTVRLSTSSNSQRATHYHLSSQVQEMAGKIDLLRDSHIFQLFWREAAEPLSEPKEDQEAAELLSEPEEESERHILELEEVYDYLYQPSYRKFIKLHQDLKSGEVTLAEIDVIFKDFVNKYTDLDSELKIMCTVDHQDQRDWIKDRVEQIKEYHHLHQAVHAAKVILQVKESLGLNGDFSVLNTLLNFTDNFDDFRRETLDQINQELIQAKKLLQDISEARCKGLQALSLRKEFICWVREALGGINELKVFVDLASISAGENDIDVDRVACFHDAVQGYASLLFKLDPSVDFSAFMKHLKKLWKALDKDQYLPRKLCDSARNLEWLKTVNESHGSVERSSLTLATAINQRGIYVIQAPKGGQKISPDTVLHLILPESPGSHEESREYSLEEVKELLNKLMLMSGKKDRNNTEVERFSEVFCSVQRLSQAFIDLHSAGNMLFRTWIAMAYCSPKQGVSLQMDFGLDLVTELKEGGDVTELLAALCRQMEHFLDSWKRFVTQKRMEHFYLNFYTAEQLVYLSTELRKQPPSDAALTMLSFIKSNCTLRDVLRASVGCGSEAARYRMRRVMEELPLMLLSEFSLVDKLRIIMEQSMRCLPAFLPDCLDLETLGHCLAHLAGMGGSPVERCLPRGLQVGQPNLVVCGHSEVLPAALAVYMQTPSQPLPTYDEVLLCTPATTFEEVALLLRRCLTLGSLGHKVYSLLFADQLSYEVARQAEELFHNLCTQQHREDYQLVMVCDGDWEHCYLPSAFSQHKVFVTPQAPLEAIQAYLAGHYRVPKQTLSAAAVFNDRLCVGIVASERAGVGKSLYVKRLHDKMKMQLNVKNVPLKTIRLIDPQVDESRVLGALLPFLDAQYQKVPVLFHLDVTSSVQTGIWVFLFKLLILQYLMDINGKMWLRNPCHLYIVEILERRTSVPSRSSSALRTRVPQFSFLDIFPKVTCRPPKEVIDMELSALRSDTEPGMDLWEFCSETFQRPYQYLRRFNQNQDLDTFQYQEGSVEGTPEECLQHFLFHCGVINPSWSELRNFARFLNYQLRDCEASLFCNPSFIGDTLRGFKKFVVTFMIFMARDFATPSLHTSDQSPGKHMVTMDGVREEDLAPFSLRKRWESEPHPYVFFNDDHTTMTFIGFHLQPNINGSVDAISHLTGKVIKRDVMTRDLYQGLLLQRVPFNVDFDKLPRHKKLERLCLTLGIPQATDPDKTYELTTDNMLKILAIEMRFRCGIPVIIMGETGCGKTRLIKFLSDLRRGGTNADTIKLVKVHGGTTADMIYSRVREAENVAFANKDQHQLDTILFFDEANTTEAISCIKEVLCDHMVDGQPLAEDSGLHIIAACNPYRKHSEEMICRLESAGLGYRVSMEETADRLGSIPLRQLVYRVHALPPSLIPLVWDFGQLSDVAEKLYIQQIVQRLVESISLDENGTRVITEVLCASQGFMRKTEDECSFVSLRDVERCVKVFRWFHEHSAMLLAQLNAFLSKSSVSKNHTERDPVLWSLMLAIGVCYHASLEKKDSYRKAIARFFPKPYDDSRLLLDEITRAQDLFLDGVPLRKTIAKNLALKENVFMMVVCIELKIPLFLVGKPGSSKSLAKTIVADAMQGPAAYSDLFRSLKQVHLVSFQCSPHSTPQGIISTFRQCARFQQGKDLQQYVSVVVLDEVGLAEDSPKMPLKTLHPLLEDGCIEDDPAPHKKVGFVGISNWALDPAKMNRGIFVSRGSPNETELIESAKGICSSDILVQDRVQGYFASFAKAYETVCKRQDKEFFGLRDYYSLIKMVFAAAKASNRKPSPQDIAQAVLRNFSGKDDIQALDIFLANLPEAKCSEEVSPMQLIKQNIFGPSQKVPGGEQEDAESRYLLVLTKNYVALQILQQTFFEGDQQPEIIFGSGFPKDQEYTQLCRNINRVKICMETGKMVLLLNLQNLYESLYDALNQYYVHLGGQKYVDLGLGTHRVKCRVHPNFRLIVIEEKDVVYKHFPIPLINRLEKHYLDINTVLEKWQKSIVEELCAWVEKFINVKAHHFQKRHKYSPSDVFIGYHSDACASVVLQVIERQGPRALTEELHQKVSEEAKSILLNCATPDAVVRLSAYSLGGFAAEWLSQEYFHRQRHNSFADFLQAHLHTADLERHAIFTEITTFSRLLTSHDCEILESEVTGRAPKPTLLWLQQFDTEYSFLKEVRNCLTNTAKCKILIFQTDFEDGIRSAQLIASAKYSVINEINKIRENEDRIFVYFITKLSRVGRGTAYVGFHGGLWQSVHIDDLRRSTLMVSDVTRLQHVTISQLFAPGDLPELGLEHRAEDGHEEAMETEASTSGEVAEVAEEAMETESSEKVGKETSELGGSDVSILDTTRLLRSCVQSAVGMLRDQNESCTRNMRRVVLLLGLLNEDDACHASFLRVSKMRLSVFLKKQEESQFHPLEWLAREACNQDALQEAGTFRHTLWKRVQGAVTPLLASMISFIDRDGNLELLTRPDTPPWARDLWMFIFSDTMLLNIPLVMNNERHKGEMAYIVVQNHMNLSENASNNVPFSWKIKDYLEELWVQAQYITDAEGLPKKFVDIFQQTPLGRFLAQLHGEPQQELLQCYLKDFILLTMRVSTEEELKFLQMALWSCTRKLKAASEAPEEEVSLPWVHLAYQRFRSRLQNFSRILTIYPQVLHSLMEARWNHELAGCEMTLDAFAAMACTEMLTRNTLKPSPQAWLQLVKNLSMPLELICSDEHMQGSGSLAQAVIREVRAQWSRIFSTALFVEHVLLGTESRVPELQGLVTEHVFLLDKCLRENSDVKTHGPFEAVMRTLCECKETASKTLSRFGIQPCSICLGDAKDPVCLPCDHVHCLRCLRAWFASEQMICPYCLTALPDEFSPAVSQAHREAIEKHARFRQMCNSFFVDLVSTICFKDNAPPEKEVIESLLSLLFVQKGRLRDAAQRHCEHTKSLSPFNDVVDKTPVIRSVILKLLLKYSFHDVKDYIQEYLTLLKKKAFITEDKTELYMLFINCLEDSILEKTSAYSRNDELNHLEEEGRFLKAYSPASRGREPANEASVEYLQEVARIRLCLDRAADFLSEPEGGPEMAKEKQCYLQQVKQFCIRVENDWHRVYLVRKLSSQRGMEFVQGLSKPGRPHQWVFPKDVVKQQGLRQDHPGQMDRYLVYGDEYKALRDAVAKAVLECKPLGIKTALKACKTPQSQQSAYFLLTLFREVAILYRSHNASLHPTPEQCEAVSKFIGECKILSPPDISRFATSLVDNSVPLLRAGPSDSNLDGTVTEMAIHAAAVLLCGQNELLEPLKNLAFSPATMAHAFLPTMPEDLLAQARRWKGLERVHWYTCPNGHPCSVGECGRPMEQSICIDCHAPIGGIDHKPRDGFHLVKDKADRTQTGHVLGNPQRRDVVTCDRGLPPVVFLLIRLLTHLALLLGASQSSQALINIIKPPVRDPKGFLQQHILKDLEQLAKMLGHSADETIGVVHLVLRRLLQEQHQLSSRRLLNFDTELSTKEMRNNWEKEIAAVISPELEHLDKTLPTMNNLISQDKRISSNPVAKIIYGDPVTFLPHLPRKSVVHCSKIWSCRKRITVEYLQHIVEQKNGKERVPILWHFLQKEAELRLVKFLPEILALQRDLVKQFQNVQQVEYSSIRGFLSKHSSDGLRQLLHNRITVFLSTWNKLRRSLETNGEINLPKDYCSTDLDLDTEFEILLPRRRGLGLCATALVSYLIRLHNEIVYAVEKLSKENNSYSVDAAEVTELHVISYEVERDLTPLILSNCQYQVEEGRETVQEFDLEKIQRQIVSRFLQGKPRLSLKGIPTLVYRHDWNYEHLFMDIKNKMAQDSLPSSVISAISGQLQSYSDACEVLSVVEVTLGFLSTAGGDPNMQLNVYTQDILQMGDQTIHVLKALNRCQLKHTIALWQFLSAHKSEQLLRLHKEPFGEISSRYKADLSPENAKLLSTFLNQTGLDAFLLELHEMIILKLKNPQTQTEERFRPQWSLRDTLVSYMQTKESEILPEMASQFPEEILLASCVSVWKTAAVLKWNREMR

| SMILES | fold changes relative to vehicle control ([1]; protein PDIA3, HeLa) | fold changes relative to vehicle control ([2]; protein KIAA1618, HeLa) | fold changes relative to vehicle control ([3]; HeLa, protein SEC13) | fold changes relative to vehicle control ([4]; protein HSPA5, HeLa) | fold changes relative to vehicle control ([5]; protein EIF4A1, HeLa) | fold changes relative to vehicle control ([6]; protein OGDH, HeLa) | fold changes relative to vehicle control ([7]; HeLa, protein PSMA5) | fold changes relative to vehicle control ([8]; HeLa, protein PDHA1) | fold change [9, 11] | fold change - vehicle control [10, 12] | fold changes relative to vehicle control ([2]; HeLa, protein KIAA1618) | fold changes relative to vehicle control ([3]; HeLa, captured protein SEC13) | fold changes relative to vehicle control ([4]; HeLa, captured protein HSPA5) | fold changes relative to vehicle control ([5]; HeLa, protein EIF4A1) | fold changes relative to vehicle control ([6]; HeLa, captured protein OGDH) | fold changes relative to vehicle control ([7]; HeLa, captured protein PSMA5) | fold changes relative to vehicle control ([8]; HeLa, captured protein PDHA1) | fold change vs vehicle control [10, 13] | fold change [9, 14] | further results |
| --- | --- | --- | --- | --- | --- | --- | --- | --- | --- | --- | --- | --- | --- | --- | --- | --- | --- | --- | --- | --- |
| CCCCCCOc1cccc(Cc2cnc(N)nc2N)c1 [compound 2] | 1.79 | 0.95 | 0.86 | 1.12 | 1.75 | 1.26 | 1.19 | 0.4 | 1.1 | 0.98 | – | – | – | – | – | – | – | – | – | – |
| NCCOCCOCC(=O)Nc1nc2ncc(CNc3ccc(C(=O)NC(CCC(=O)O)C(=O)O)cc3)nc2c(=O)[nH]1 (centres unmarked) [compound 6] | 1.15 | – | – | – | – | – | – | – | 0.68 | – | 1.21 | 0.86 | 1 | 1.27 | 1.02 | 1.08 | 1 | 1.54 | – | – |
| CCCCCCOc1ccc(Cc2cnc(N)nc2N)cc1 [compound 1] | 1.19 | 0.98 | 0.93 | 0.96 | 1.12 | 1.05 | 1.05 | 1.02 | – | 0.88 | – | – | – | – | – | – | – | – | 1.08 | – |
| Nc1nc2c(c(=O)[nH]1)N(C=O)C(CNc1ccc(C(=O)N[C@@H](CCC(=O)O)C(=O)O)cc1)CN2 (some centres unmarked) [LEU, leucovorin] | 0.94 | – | – | – | – | – | – | – | 0.98 | – | 0.87 | 1.02 | 1.06 | 0.99 | 1.13 | 1.03 | 1.06 | 2.16 | – | – |
| NCCCNc1ccc(C(=O)NC(CCC(=O)O)C(=O)O)cc1 (centres unmarked) [compound 7] | 0.85 | – | – | – | – | – | – | – | – | – | 1 | 0.98 | 1 | 0.89 | 1.04 | 0.99 | 0.99 | 1.05 | 1.16 | – |
| Nc1nc2[nH]cc(CCc3ccc(C(=O)N[C@@H](CCC(=O)O)C(=O)O)cc3)c2c(=O)[nH]1 [PTX, pemetrexed] | – | – | – | – | – | – | – | – | – | – | – | – | – | – | – | – | – | – | 1.01 | fold changes relative to vehicle control [1]: 0.97; fold changes relative to vehicle control [2]: 1.01; fold changes relative to vehicle control [3]: 0.92; fold changes relative to vehicle control [4]: 1.03; fold changes relative to vehicle control [5]: 1.07; fold changes relative to vehicle control [6]: 0.9; fold changes relative to vehicle control [7]: 1.04; fold changes relative to vehicle control [8]: 1.04; fold change vs vehicle control [10]: 0.63 |
| Nc1nc2cccc(-c3ccccc3)c2n1Cc1ccc(Cl)c(Cl)c1 [compound 3] | 0.85 | 1.04 | 0.95 | 0.99 | 0.8 | 1.03 | 1 | 1.07 | – | 0.75 | – | – | – | – | – | – | – | – | 1.02 | percentage of competition from bead binding ([9]; multitargeted bead mixture, free ligand 100 μM, T. brucei lysate, Tb427tmp.02.5000): -6% |
